Values quoted from earlier work in patent US8697043B1, “Odor suppression of volatile organic analgesic compounds and method of use” (Chattem, Inc., priority 2013, dated 2014).

Tests used:
[1] = at 25° C.

Row | SMILES | Solubility in water | Vapor pressure [1] [kPa]
1 | CC12CCC(CC1=O)C2(C)C (centres unmarked) [camphor] | neither menthol nor camphor are significantly soluble in water | 86.7
2 | CCO [ethanol] |  | 5.9
3 | CC1CCC(C(C)C)C(O)C1 (centres unmarked) [Menthol] | neither menthol nor camphor are significantly soluble in water | 8.5
